Data on one compound can be found in PMC6156125, “Chemistry and Hypoglycemic Activity of GPR119 Agonist ZB-16” (Frontiers in Endocrinology, 2018).

One series concerns the target T1, human GPR119 (hGPR119) (Homo sapiens, UniProt Q8TDV5).
T1 construct: expressed in transfected cells; host or cells: CHO-K1 (Chinese hamster ovary)
T1 sequence (Q8TDV5 1-335): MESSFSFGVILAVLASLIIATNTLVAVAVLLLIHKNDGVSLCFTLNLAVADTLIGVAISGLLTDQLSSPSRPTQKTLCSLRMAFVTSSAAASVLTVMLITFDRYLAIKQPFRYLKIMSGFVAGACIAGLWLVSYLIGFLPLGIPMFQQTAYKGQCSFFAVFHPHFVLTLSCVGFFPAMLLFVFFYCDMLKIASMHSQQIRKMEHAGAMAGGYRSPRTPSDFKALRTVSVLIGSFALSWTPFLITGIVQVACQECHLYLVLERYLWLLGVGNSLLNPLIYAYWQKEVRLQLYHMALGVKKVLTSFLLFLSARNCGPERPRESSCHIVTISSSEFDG
Kind of series: Specific (agonistic) activity in vitro, cAMP increase (Lance Ultra cAMP kit) in CHO-K1 cells expressing hGPR119. In kind it is cell-based. To be noted: for EC50: CHO-K1 hGPR119, cAMP. How it is done: Specific activity was evaluated using an immortalized Chinese hamster ovary cell line CHO-K1 steadily expressed human GPR119 (hGPR119). The cells (10^7 ml^−1) were cultured in Dulbecco's modified Eagle medium (DMEM) modified with 10% fetal bovine serum (FBS), revolved continuously at 50 rpm at 37°C in 8% CO2 for 3–4 days. Lance Ultra cAMP kit (Perkin Elmer, Waltham, MA, USA) was chosen as the experimental platform ([13]). The experiments were performed in accordance to the manufacturer's instructions. The agonistic activity of the test compounds was estimated by the increase in intracellular cAMP concentration, assuming the hGPR119 activation is followed by the activation of cellular adenylate cyclase, which increases intracellular cAMP levels ([4], [14]). Known agonists of hGPR119 receptors were used as positive controls to determine the maximal possible effect (MPE). The activity of test compounds was expressed in terms of median effective concentration (EC50).

Series [1] can be described thus: Biotransformation in vitro, microsomal stability (human). In kind it is in vitro ADME. How it is done:
The metabolism of the compounds was studied in commercially available microsomal fractions derived from human and rat hepatocytes. Test compounds (0.5 μM) were incubated with microsomal fractions in the presence of NADPH during 30 min in a shaker at 37°C. Reactions were stopped at 0, 5, 10, 15, and 30 min by adding acetonitrile. After proteins precipitation, the remaining amount of the test compound in the supernatant was detected with high performance liquid chromatography tandem-mass spectrometry (HPLC-MS/MS) method using Agilent 1260 liquid chromatograph (Agilent Technologies, Santa Clara, CA, USA) and a QTRAP6500 triple quadrupole mass spectrometer with a TurboIonSpray electro-spraying module (ABSciex, Foster City, CA, USA) ([15]). Incubation was performed twice, with at least 2 measurements for each replicate (n ≥ 3). The half-life (T1/2), the clearance in vitro (CLint) and the remaining amount of substance (% of initial quantity) were calculated.

What is called EC50 is the concentration at which the effect is half-maximal. Low readings indicate a more potent agent, high ones a less potent agent. Take `O=S1(=O)COc2cc(-c3ccc(OCC4CCN(c5ncc(Cl)cn5)CC4)c(F)c3)ccc21` [ZB-16]: the EC50 was 7.25 nM on human GPR119 (hGPR119) and 7.3 to 9.7 nM on human GPR119 (hGPR119) (values of the text). In addition, the “type of agonism on GPR119” value on human GPR119 (hGPR119) (response normalized to control substance (Arena)) is reported as “complete agonist”. In series [1] (Human microsomal fraction), the ER was determined as 0.76. This compound also had a CLh in series [1] (Human microsomal fraction, in mL/min/kg (unit assumed)) of 16.43. The compound further showed a microsomal CLint at 0.5 μM in series [1] (liver microsomal fraction) of 65.2 µL/min/mg. In series [1] (liver microsomal fraction, 0.5 μM, NADPH, read-out: t1/2, min), the half-life at 0.5 μM turned out to be 42.5 min.
